Measured values from PMC10856454, “Discovery of Novel Antitumor Small-Molecule Agent with Dual Action of CDK2/p-RB and MDM2/p53” (Molecules, 2024).

Experiments:
[1] = Liver microsomal stability, rat; type: in vitro ADME; conditions: Rat liver microsomes
Procedure: (§1) Compounds were incubated with mouse, rat, and human liver microsomal samples and NADPH at 37 °C for 5, 10, 20, 30, or 60 min. The reaction was terminated with a cold acetonitrile solution containing tolbutamide. Compound retention was determined by LC-MS/MS. The retention times, chromatographic acquisition, and chromatographic integration of compounds and positive control substances were analyzed using Analyst (AB Sciex, Framingham, MA, USA).

[2] = Caco-2 permeability and transporter substrate evaluation; type: in vitro ADME; conditions: human, Caco-2, 2 μM
Procedure: Caco-2 cells were cultured in MEM with 20% FBS, penicillin (100 U/mL), and streptomycin (100 μg/mL) at 37 °C in 95% air and 5% CO2. Cells were seeded into 96-well cell plates and cultured continuously for 24 days for subsequent experiments. […] After 120 min of incubation, samples were collected from the apical and basal ends. The […] content of each sample was determined by liquid chromatography–tandem mass spectrometry (LC-MS/MS). The apparent […] coefficient and efflux ratio were calculated.

[3] = molecular target: T1, hERG (Homo sapiens, UniProt Q12809); experiment: hERG assay in CHO cells stably expressing hERG; type: cell-based; conditions: maximum concentration of 30 μM
T1 construct: expressed in transfected cells; host or cells: CHO cells
T1 sequence (Q12809 whole entry): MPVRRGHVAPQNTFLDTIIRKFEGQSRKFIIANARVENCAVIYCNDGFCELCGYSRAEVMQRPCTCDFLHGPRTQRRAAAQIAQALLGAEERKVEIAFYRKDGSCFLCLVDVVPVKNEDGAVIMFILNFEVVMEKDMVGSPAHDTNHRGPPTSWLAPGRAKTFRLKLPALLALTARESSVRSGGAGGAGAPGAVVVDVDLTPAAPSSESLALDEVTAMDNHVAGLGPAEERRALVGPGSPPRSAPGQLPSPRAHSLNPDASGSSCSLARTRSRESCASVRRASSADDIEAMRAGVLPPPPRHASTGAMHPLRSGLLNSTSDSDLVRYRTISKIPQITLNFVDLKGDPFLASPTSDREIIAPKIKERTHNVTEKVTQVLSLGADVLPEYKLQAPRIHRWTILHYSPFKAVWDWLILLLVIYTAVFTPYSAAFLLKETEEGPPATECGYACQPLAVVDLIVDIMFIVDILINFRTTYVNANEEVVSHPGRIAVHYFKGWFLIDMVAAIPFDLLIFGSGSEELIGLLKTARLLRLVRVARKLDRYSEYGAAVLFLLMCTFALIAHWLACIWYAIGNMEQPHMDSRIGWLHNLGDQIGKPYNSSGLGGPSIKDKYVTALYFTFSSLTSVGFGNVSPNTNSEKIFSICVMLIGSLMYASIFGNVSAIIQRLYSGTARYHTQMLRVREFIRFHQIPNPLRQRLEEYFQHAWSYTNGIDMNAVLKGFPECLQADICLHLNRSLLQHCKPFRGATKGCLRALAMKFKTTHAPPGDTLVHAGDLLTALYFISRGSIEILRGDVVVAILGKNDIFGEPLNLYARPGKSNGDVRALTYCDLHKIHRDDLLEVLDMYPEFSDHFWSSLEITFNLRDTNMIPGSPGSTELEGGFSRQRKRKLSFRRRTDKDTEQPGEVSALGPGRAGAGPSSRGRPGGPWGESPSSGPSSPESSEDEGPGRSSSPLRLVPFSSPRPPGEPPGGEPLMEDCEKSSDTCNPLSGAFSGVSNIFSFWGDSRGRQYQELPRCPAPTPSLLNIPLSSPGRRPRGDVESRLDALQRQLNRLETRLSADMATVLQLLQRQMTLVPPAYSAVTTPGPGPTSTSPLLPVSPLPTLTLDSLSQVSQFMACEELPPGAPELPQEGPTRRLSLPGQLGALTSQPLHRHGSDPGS
Procedure: This test method is a reference to a previous study. CHO cells stably expressing hERG were cultured with medium containing 10% FBS, penicillin (100 U/mL), and streptomycin (100 μg/mL) in DMEM/F12 in an incubator at 37 °C, 5% CO2. Cultures were passaged in a 1:5 ratio every 48 h. The medium consisted of 90% F12, 10% FBS, G418 (100 μg/mL), and hygromycin B (100 μg/mL). On the day of the assay, the current should reach a steady state for at least 1 min prior to administration of the compounds, and the test current was measured again after 5 min of stimulation with different concentrations of the drug.

[4] = test system: MDM2 mRNA in OVCAR3 cells; experiment: q-PCR of MDM2 mRNA after III-13 treatment; type: cell-based, human; conditions: q-PCR after 12 h of treatment
From the text: RNA was reverse transcribed with the HiScript Q RT SuperMix for qPCR (Vazyme, Nanjing, China), and quantitative real-time PCR (qPCR) was applied using SYBR Green qPCR Mix (SparkJade, Jinan, China) on the ABI Prism 7500 Fast Real-Time PCR System (Applied Biosystems, Carlsbad, CA, USA) following the manufacturer’s protocols. The comparative CT method (ΔΔCt) was used to calculate gene expression differences, with GAPDH as the reference gene. The following primers were used (human): • ZNF311 (sense, 5′-3′): […] • ZNF311 (antisense, 5′-3′): […] • TBX15 (sense, 5′-3′): […] • TBX15 ([…], 5′-3′): […] • ZNF784 (sense, 5′-3′): […] • ZNF784 (antisense, 5′-3′): […] • SIX3 (sense, 5′-3′): […] • SIX3 (antisense, 5′-3′): […] • KLLN (sense, 5′-3′): […] • KLLN (antisense, 5′-3′): […] • P2RY1 (sense, 5′-3′): […] • P2RY1 (antisense, 5′-3′): […] • MSH4 (sense, 5′-3′): […] • MSH4 (antisense, 5′-3′): […] • STAR (sense, 5′-3′): […] • STAR (antisense, 5′-3′): […] • SUMO4 (sense, 5′-3′): […] • SUMO4 (antisense, 5′-3′): […] • ZC3H12D (sense, 5′-3′): […] • ZC3H12D (antisense, 5′-3′): […] • CCNE1 (sense, 5′-3′): […] • CCNE1 (antisense, 5′-3′): […] • MDM2 (sense, 5′-3′): […] • MDM2 (antisense, 5′-3′): […] • GAPDH (sense, 5′-3′): […] • GAPDH (antisense, 5′-3′): […]

[5] = Pharmacokinetics study in rats; type: in vivo
Procedure: The pharmacokinetics study was created as described. […] Approximately 200 μL of whole blood was collected into heparin-coated tubes at 0.083, 0.25, 0.5, 1, 2, 3, 4, 6, 8, 12, and 24 h after dosing. Plasma was collected immediately by centrifugation (8000× g, 5 min, room temperature). Blood was placed in a heparinized Eppendorf™ tube. Plasma was centrifuged, and the concentration of compounds in the sample was determined by LCMS/MS after pre-treatment. Drug-concentration data were processed in a […] using WinNonlin™ 6.3 (Pharsight, Mountain View, CA, USA).

[6] = Liver microsomal stability, mouse; type: in vitro ADME; conditions: Mice liver microsomes
Procedure: as §1

[7] = test system: HCT116 cells; experiment: Colony formation, HCT116; type: cell-based; conditions: 14 days
Procedure: Cells were inoculated in six-well plates at 1000 cells per well, and III-13 was added in a dose-dependent manner after 24 h. Cells were stained with Crystal Violet Staining Solution (Beyotime, Shanghai, China) at 14 days after incubation, and the cell colonies were counted using Image J.

[8] = molecular target: T2, CDK6 (Homo sapiens, UniProt Q00534); experiment: Kinase antagonist activity assay (TR-FRET), CDK6; type: biochemical
T2 construct: purchased Thermo Fisher Scientific
T2 sequence (Q00534 whole entry): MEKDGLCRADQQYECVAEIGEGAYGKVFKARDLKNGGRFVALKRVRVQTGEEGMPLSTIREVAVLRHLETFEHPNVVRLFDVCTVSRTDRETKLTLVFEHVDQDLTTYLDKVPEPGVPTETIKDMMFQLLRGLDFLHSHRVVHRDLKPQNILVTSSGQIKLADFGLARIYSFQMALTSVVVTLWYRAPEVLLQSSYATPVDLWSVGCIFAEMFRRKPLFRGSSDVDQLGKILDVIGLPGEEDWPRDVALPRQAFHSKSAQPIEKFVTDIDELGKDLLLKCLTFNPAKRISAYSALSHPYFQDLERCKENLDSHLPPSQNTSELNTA
T2 sequence (P24385 whole entry partner): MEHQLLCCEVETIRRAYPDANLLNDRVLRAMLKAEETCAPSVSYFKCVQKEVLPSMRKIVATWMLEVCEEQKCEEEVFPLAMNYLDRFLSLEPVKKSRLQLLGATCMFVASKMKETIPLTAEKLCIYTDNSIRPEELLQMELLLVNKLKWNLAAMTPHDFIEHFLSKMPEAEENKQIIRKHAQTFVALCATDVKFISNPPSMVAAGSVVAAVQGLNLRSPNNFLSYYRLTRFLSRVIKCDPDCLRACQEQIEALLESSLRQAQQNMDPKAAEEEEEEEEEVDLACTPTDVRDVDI
Procedure: The compounds were solubilized with DMSO (Solarbio Life Sciences, Beijing, China), and 11 concentrations were serially diluted at 3-fold; 100 nL of compound was added to 384-well plates, 5 μL of 2 × enzyme mixture (Thermo Fisher Scientific, Waltham, MA, USA) was added, and 5 μL of buffer was added instead of the complete inhibition control wells. Then, 1000 rpm centrifugation was performed for 30 s followed by a 15 min incubation at 23 °C. Next, 5 μL of 2 × MLight-MBP peptide (PerkinElmer, Waltham, MA, USA) was added to each well, with 1000 rpm centrifugation for 30 s and incubation at 23 °C for 90 min. At the end of the incubation, the reaction was terminated with buffer containing 15 mM EDTA and 2 nM Eu-anti-P-MBP antibody (PerkinElmer, Waltham, MA, USA), centrifuged at 1000 rpm for 1 min, and incubated at 23 °C for 60 min; the plates were read on a Perkin Elmer Envision ([…]).

[9] = both sexes, rat, plasma, iv, 2 mg/kg i.v.
[10] = both sexes, rat, plasma, iv, 2 mg/kg, 2 mg/kg i.v.
[11] = both sexes, rat, plasma, po, 5 mg/kg i.g.
[12] = both sexes, rat, plasma, po, 5 mg/kg, 5 mg/kg i.g.

- CLint scaled [1]: 88.9 mL/min/kg
- Remaining (T = 60 min) ([1]; 60 min): 22.8%
- half-life ([1]; NADPH, 37 °C): 28.1 min
- Papp A→B at 120 min, 2 µM [2]: 1.6 ×10⁻⁶ cm/s
- Papp B→A at 120 min, 2 µM [2]: 8.56 ×10⁻⁶ cm/s
- efflux ratio at 120 min, 2 µM [2]: 5.34
- CL/F ([5]; 2 mg/kg i.v.): 41.2 mL/min/kg
- Vz/F ([5]; 2 mg/kg i.v.): 1.3 ± 0.374 L/kg
- AUClast ([5]; 2 mg/kg i.v., 2 mg/kg): 2052 ± 337 nM·h
- T1/2 ([5]; 2 mg/kg i.v., 2 mg/kg): 22.2 ± 7.8 min
- AUClast ([5]; 5 mg/kg i.g., 5 mg/kg): 293 ± 64.6 nM·h
- T1/2 ([5]; 5 mg/kg i.g., 5 mg/kg): 50.4 ± 7.2 min
- Cmax [5, 9]: 5500 ± 2310 nM
- MRT last [5, 9]: 27 ± 15 min
- AUC(0-t) [5, 10]: ~2.05 µM·h
- half-life [5, 10]: ~22.2 min
- bioavailability ([5]; both sexes, rat, plasma, oral, 5 mg/kg, 5 mg/kg i.g. vs 2 mg/kg i.v., read-out: F (oral bioavailability)): ~3.57%
- Cmax [5, 11]: 389 ± 87.9 nM
- MRT last [5, 11]: 51 ± 6 min
- AUC(0-t) [5, 12]: ~0.293 µM·h
- Tmax [5, 12]: ~15 min
- half-life [5, 12]: ~50.4 min
- Remaining (T = 60 min) ([6]; 60 min): 1.29%
- CLint scaled ([6]; mouse): 840 mL/min/kg
- half-life ([6]; mouse, NADPH, 37 °C): 6.53 min
- IC50 [8]: 1300 nM
- IC90 [8]: 16 µM
Structure (SMILES): CC1(C)CCN1C(=O)O[C@@H]1CC[C@H](c2cc(NC(=O)Cc3ccc(N4CCCC4=O)cc3)n[nH]2)C1 [III-13]
- cardiotoxicity in hERG assay [3]: no cardiotoxicity
- MDM2 mRNA expression [4]: significantly inhibited
- number of colonies [7]: significant reduction
